Measurements taken from patent US12258308B2, “Benzene derivative” (ONO PHARMACEUTICAL CO., LTD., priority 2018, dated 2025).

Experiments:
[1] = system: rat Schwann cells; experiment: In vitro test using Schwann cells (Schwann cell differentiation promotion, MAG immunostaining); assay type: cell-based; details: Rattus norvegicus, 72 h, 3 days, MAG-positive area/cell nuclei
Procedure: Biological Experiment Example 1: In Vitro Test Using Schwann Cells
• (1) Preparation of rat Schwann cells
A dorsal root ganglion (abbreviated as “DRG”, hereinafter) was excised from a newborn rat aged 0 to 2 days in a clean bench and was collected in DMEM. After the collection, the tube was centrifuged at 400 g, at room temperature for 3 minutes, then a supernatant was discarded, and a 0.25% collagenase solution was added. There resultant solution was incubated at 37° C. for 30 minutes to disperse and separate the excised DRG, and was then centrifuged at room temperature at 400 g for 3 minutes, then a supernatant was discarded, and then 0.25% Trypsin/EDTA and DNaseI were added. After the incubation at 37° C. for 30 minutes, trypsin was inactivated with DMEM supplemented with 10% FBS (10% FBS-DMEM), and centrifugation was carried out at room temperature at 400 g for 3 minutes. A supernatant was discarded, then 10% FBS-DMEM was added to the residue to prepare a cell suspension, and then the cell suspension was allowed to pass through a filter (diameter: 70 μm). The number of cells in the cell suspension which passed through the filter was counted to prepare a solution having a concentration of 2.0×10^5 cells/mL, and the suspension was seeded in a poly-D-lysine-coated 96-well black-clear plate in an amount of 100 μL/well and was then statically cultured in a CO2 incubator under the conditions including 5% of CO2, 95% of air and 37° C.
The culture medium in the cell culture plate was removed by suction using an aspirator, and then DMEM supplemented with 1% dialyzed FBS and 100 μmol/L dibutyryl cyclic AMP was added. Subsequently, a solution of a compound of the present invention dissolved in DMSO was added, and the resultant solution was statically cultured in a C02 incubator under the conditions including 5% of C02, 95% of air and a temperature of 37° C. The final concentration of the compound of the present invention in each well in the cell culture plate was adjusted to 0.1, 0.3, 1 or 3 μmol/L.
Three days after the treatment with the compound, formaldehyde was added to each well in the cell culture plate, and the cell culture plate was allowed to stand at room temperature for 30 minutes or longer. A supernatant was discarded, and then a 0.3% tritonX-100 solution was added to each well, and then the cell culture plate was allowed to stand at room temperature for 20 minutes or longer. A supernatant was discarded, then a 5-μg/mL anti-myeline-associated glycoprotein antibody (anti-MAG antibody) solution was added to each well, and then the cell culture plate was allowed to stand at room temperature for 60 minutes or longer or at 4° C. (acceptable range: 1 to 9° C.) overnight. Each well was washed with a 0.1% tritonX-100 solution three times, then a 10-μg/mL Alexa fluor 488 anti-mouse IgG solution was added to each well, and then the cell culture plate was allowed to stand at room temperature for 60 or longer or at 4° C. overnight. Each well was washed with a 0.1% tritonX-100 solution four times, and then a 1-μg/mL Hoechst33342 solution was added to each well to stain nuclei.
The Mag-positive area and the number of cell nuclei in a fluorescent image were calculated. With respect to each of the MAG-positive area and the number of cell nuclei, the sum total of values obtained in 5 viewing fields/well was determined. The values were employed as a value for the MAG-positive area and a value for the number of cell nuclei, respectively, in each well. Subsequently, a value determined by dividing the value for the MAG-positive area in each well by the value for the number of cell nuclei in the well (i.e., MAG/cell nuclei numerical value) was calculated. The Schwann cell differentiation promotion rate was determined for each of the vehicles in accordance with the following formula. […]

[2] = system: streptozotocin-induced rat model; experiment: Test using streptozotocin-induced rat model (nociceptive threshold, von Frey); assay type: in vivo
Procedure: Biological Experiment Example 2: Test Using Streptozotocin-Induced Rat Model
In order to evaluate the therapeutic effect of each of the compounds of the present invention on diabetic peripheral neuropathy, an in vivo test using a streptozotocin model was carried out.
A model was produced by intravenously administering streptozotocin (abbreviated as “STZ”, hereinafter) one time at a dose amount of 55 mg/kg to a rat.
(2) Measurement of Nociceptive Threshold
The rat was placed in a clear acryl measurement cage once or more times for 10 minutes or longer until the administration of STZ started. In this manner, the rat was acclimated to the measurement environment. Eight von Frey filaments respectively having weights of 0.4, 0.6, 1, 2, 4, 6, 8 and 15 g were applied vertically to a hindpaw of the rat from under a metallic mesh floor. When a quick escape or flinching reaction was observed, it was determined that a positive reaction occurred (i.e., “response was observed”). Each of the compounds of the present invention was administered orally once per day in a period from day 14 to day 28 after the administration of STZ, wherein the dose amount of each of the compounds was 0.03, 0.3 or 3 mg/kg. A nociceptive threshold was measured 2 hours after the administration of each of the compounds of the present invention at the timings of before the administration of STZ, 14 days after the administration of STZ (i.e., the day of the start of the administration of each of the compounds of the present invention), 21 days after the administration of STZ (i.e., 7 days after the start of the administration of the compound), 28 days after the administration of STZ (i.e., 14 days after the start of the administration of the compound), and 35 days after the administration of STZ (i.e., 7 days after the withdrawal of the administration of the compound).
The nociceptive threshold was measured by the up-down method in accordance with the method of Chaplan et. al. (J Neurosci Methods. 1994; 53:55-63). The rate of improvement in the nociceptive threshold was calculated in accordance with the following formula. Nociceptive threshold improve rate (%)=(nociceptive threshold on each of the number of days elapsed after administration of STZ−B)/(A−B)×100 [Math 2] • A: Nociceptive threshold before administration of STZ • B: Nociceptive threshold on 14 days elapsed after administration of STZ (Results)
The results of the nociceptive thresholds and the nociceptive threshold improve rates obtained when each of the compounds of the present invention was administered at a dose amount of 0.3 mg/kg are shown in the FIGURE and Table 2, respectively. With respect to all of the compounds, a potent pain relief effect against peripheral neuropathy was observed. With respect to the compound of Example 11, for example, the improvement in the nociceptive threshold was observed from 7 days after the start of the administration of the compound, and this effect lasted even 7 days after the withdrawal of the administration.

Question: What does the source list for `O=C(O)CCc1ccccc1OCC[C@@H](O)/C=C/c1cccc(NS(=O)(=O)C2CCCC2)c1` [Example 74(13), 3-[2-[(E,3R)-5-[3-(Cyclopentylsulfonylamino)phenyl]-3-hydroxypent-4-enoxy]phenyl]propanoic acid]?
Answer: activity at 0.3 µM ([1]; compound 0.3 μmol/L, read-out: Schwann cell differentiation promotion rate (% of vehicle) 0.3 μmol/L): 79.9%; activity at 3 µM ([1]; compound 3 μmol/L, read-out: Schwann cell differentiation promotion rate (% of vehicle) 3 μmol/L): 184%; Nociceptive threshold improve rate (%) 7 days after withdrawal of administration ([2]; 0.3 mg/kg oral once per day day 14 to 28, 35 days after STZ): 76.3 ± 13.41%; Nociceptive threshold improve rate (%) After initial single administration ([2]; 0.3 mg/kg oral once per day, 14 days after STZ, 2 hours after administration): 2.6 ± 1.69%; Nociceptive threshold improve rate (%) 7 days after start of administration ([2]; 0.3 mg/kg oral once per day, 21 days after STZ): 28.3 ± 7.44%; Nociceptive threshold improve rate (%) 14 days after start of administration ([2]; 0.3 mg/kg oral once per day, 28 days after STZ): 57.3 ± 17.63%
